According to patent US10159725B2, “Composition of tumor-associated peptides and related anti-cancer vaccine for the treatment of gastric cancer and other cancers” (priority 2010, dated 2018):

Key:
CD8+ T cells = assay: In vitro priming of CD8+ T cells with pMHC/anti-CD28 coated beads, multimer readout (in vitro immunogenicity); assay type: cell-based, human; details: healthy HLA-A*24 donors, three stimulations; for Positive wells/wells tested [%]: at least 24 wells evaluable per peptide; for Positive donors/donors tested [%]: at least two donors evaluable per peptide
Experimental: In order to perform in vitro stimulations by artificial antigen presenting cells (aAPC) loaded with peptide-MHC complex (pMHC) and anti-CD28 antibody, we first isolated CD8 T cells from fresh HLA-A*24 leukapheresis products of healthy donors obtained from the Blood Bank Tuebingen.
Isolation of CD8+ lymphocytes was performed by positive selection using CD8 MicroBeads (Miltenyi Biotec, Bergisch-Gladbach, Germany).
Stimulations were initiated in 96-well plates by co-incubating 1×10^6 CD8+ T cells with 2×10^5 washed coated beads in 200 μl TCM supplemented with 5 ng/ml IL-12 (PromoCell) for 3-4 days at 37° C. Half of the medium was then exchanged by fresh TCM supplemented with 80 U/ml IL-2 and incubating was continued for 3-4 days at 37° C. This stimulation cycle was performed for a total of three times. […] For analysis, a BD LSRII SORP cytometer equipped with appropriate lasers and filters was used. Peptide specific cells were calculated as percentage of total CD8+ cells. Evaluation of multimeric analysis was done using the FLOWJO software (Tree Star, Oregon, USA). In vitro priming of specific multimer+ CD8+ lymphocytes was detected by appropriate gating and by comparing to negative control stimulations.

[1] = system: HLA-DR broad antigens (HLA-DR1 to DR7); assay: ProImmune REVEAL MHC:peptide in vitro binding assay; parameters: species or system human; details: relative to pass/fail control
Experimental: The ProImmune REVEAL™ technology employs in vitro HLA-DR assembly assays to determine the on-rates for the MHC:peptide complex as one major determinant of the binding constant of individual peptides. The assay was performed by ProImmune (Oxford, UK). At a fixed time point, the amount of intact MHC:peptide complexes is measured and compared with the amount for a pass/fail control (relative weak binder). A strong, promiscuous HLA-DR binder is included as positive control. Values indicate amount of binding for the individual peptides and HLA-DR molecules relative to the pass/fail control.
In this assay, binding was compared to that of a pass/fail control binder, and to a positive control peptide for each HLA-DR antigen.

[2] = system: anti-survivin T-cell response; assay: T-cell response in vaccinated prostate carcinoma patients (IFN-g ELISPOT, +/-ICS); assay type: in vivo, human

Row | Sequence | Positive wells/wells tested [%] (CD8+ T cells) | Positive donors/donors tested [%] (CD8+ T cells) | in vitro binding to HLA-DR (in words) [1] | patients with induction of an anti-survivin T-cell response upon vaccination ([2]; among the 16 reacting patients of 19) [patients] | patients who reacted to the peptide (IFN-g ELISPOT, +/-ICS) ([2]; of the 19 patients vaccinated) [patients]
1 | AYLVYTDRL (listed as Homo sapiens) [PPAP2C-001] | 54 | 100 | – | – | –
2 | FYISPVNKL (listed as Homo sapiens) [AVL9-001] | 50 | 100 | – | – | –
3 | HYKPTPLYF (listed as Homo sapiens) [SMC4-001] | 9 | 75 | – | – | –
4 | LYQILQGIVF (listed as Homo sapiens) [CDC2-001] | 28 | 88 | – | – | –
5 | NYLLYVSNF (listed as Homo sapiens) [MST1R-001] | 14 | 50 | – | – | –
6 | NYLPFIMEL (listed as Homo sapiens) [UCHL5-001] | 14 | 75 | – | – | –
7 | RFLSGIINF (listed as Homo sapiens) [NUF2-002] | 4 | 50 | – | – | –
8 | SYIDVLPEF (listed as Homo sapiens) [MET-006] | 22 | 63 | – | – | –
9 | SYIIDPLNL (listed as Homo sapiens) [PROM1-001] | 26 | 83 | – | – | –
10 | SYNPLWLRI (listed as Homo sapiens) [ASPM-002] | 31 | 63 | – | – | –
11 | TLGEFLKLDRERAKN (listed as Homo sapiens) [IMA-BIR-002] | – | – | promiscuous binding of IMA-BIR-002 to HLA-DR1, 3, 4 and 11 | 12 | 16
12 | TYGNLLDYL (listed as Homo sapiens) [ABL1-001] | 13 | 50 | – | – | –
13 | VWSDVTPLIF (VWSDVTPLTF; listed as Homo sapiens) [MMP11-001] | 11 | 33 | – | – | –
14 | VYGIRLEHF (listed as Homo sapiens) [NUF2-001] | 25 | 100 | – | – | –
15 | VYIEKNDKL (listed as Homo sapiens) [ERBB3-001] | 15 | 83 | – | – | –
16 | YYNAAGFNKL (listed as Homo sapiens) [UQCRB-001] | 38 | 100 | – | – | –
